Counter-ions that a name gives are not always drawn.
Tests used:
[1] = tested on: Spontaneously Hypertensive rats (SHR); assay: Anti-hypertensive effect, tail-cuff systolic blood pressure in SHR; assay type: in vivo, rat
Method: This study was to determine if the BH4 analogs have a similar hypotensive effect and to determine the steady state pharmacokinetics (PK) profiles of plasma BH4 concentrations.
Male Wistar-Kyoto (WKY) rats and SHR rats (Elevage Janvier, France, 7 weeks old) were housed seven days prior to the beginning of experiments with free access to standard chow and water and maintained on an inversed 12 h dark/light cycle (10:00/22:00). After a one week acclimation period, the animals were trained to the tail-cuff system during one week (3 sessions). The following week, two baseline measurements of blood pressure were performed.
The rats (10 weeks old) then received respective treatments of water, vehicle, 2, 10, or 30 mg/kg/day of BH4 analog (Example 5, Val-BH4) or 100 mg/kg/day BH4 by oral gavage (8 mL/kg, dissolved in 100 μM ascorbic acid) performed once a day during 21 days of treatment. The doses of BH4 analog were prepared as mg/kg equivalents of BH4 (calculated using BH4 and BH4 analog 2HCl molecular weights). Body weight was monitored 3 times per week and the most recent body weight was used to adjust drug and vehicle daily intake. Seven experimental groups of rats were evaluated: Group 1—normotensive WKY rats and water gavage; Group 2—hypertensive SHR rats and water gavage; Group 3—hypertensive SHR rats and vehicle gavage; Group 4—hypertensive SHR rats and BH4 100 mg/kg/day gavage; Group 5—hypertensive SHR rats and BH4 analog 2 mg/kg/day gavage; Group 6—hypertensive SHR rats and BH4 analog 10 mg/kg/day gavage; Group 7—hypertensive SHR rats and 30 mg/kg/day BH4 analog gavage. To account for animal loss or animal disqualification during experimental handling, 10 rats were used in each group, with the expectation to obtain interpretable results for at least 8. Systolic blood pressure (SBP) and heart rate (HR) were measured twice weekly during the 3-week treatment period.
Systolic blood pressure (SBP) and heart rate (HR) were measured using the tail-cuff method, twice before the beginning of the treatment and twice weekly during the 3 week treatment period (6 measurements during the treatment period). Rats were placed in a plastic restraint and warmed to […]. A pneumatic pulse sensor was attached to the tail. After cuff inflation, SBP was measured and HR was determined by counting pulse numbers per minute. Data for each rat was taken an average of at least 4 stable readings. At least 10 cuff inflations were performed for each BP measurement.

eNOS = eNOS (Homo sapiens, UniProt P29474); assay: Cell-free eNOS activity assay reconstituted from purified components; assay type: biochemical; settings: 1, 10, 100 μM, 90 minutes at 37° C., nitrite by DAN fluorescence
Method: Also tested was the effect of BH4 analogs compared to free BH4 on stimulation of eNOS activity in a cell-free assay system reconstituted from purified components. 90 μL of reaction mixture (25 mM Tris-HCL, pH7.4, 1 μM FAD, 1 μM FMN, 100 μM L-Arginine, 2.5 mM CaCl2, 1 mM NADPH, 0.04 mg/ml Calmodulin) was mixed with 5 μl of eNOS (15 units/ml) and 5 μl of BH4 or BH4 analogs (1, 10, 100 μM), followed by incubation in a 37° C. water bath for 90 minutes. Then 100 μl of water and 20 μl of the nitrite fluorescent probe DAN (2,3-diaminonaphthalene, 316 μM) were added to each reaction and incubated at room temperature for 10 minutes. The dye DAN reacts with nitrite to yield the fluorescent product naphthotriazole. The reaction was then stopped by adding 10 μl of NaOH (2.8 M), and the fluorescence of the samples was read using excitation frequency 375 nm and emission frequency 415 nm.

[2] = Pharmacokinetics and bioavailability, single intravenous or oral doses, partial Latin square crossover; assay type: in vivo, male cynomolgus monkeys; settings: oral 40 mg/kg, n=6
Method: This study was to determine the pharmacokinetics and relative bioavailability of BH4 when given as parent BH4 or an analog of BH4 to male cynomolgus monkeys as single intravenous or oral doses in a partial Latin square crossover design.
Six, male, non-naïve cynomolgus monkeys were fasted overnight prior to dosing through approximately 4 hours postdose. Individual doses were calculated based on body weights recorded on each day of dose administration. Five experimental groups of monkeys were evaluated using a partial Latin square crossover design: Group 1-2 mg/kg BH4 by IV; Group 2-40 mg/kg BH4 by oral gavage; Group 3-2 mg/kg BH4 analog by IV; Group 4-5 mg/kg BH4 analog by oral gavage; Group 5-20 mg/kg BH4 analog by oral gavage. The doses of BH4 analog were prepared as mg/kg equivalents of BH4 (calculated using BH4 and BH4 analog 2HCl molecular weights). The partial Latin square crossover design was used to minimize dose sequence effect on interanimal variability for statistical purposes. The monkeys received their respective dose of BH4 intravenously (2 mL/kg, dissolved in 100 μM ascorbic acid and 5% mannitol in sterile water for injection, SWFI), Example 5 intravenously (2 mL/kg, dissolved in 100 μM ascorbic acid and 5% mannitol in citrate buffer, pH 3) or BH4 or Example 5 by oral gavage (4 mL/kg, dissolved in 100 μM ascorbic acid in SWFI). Prior to use, all intravenous dose formulations were filtered into the final dosing container using a 0.22-micron syringe filter (Millex GS or GV; Millipore).
For intravenous administration, blood (approximately 1 mL) was collected from each animal predose and at 0.083, 0.25, 0.5, 1, 2, 3, 4, 6, 8, 12, 18, and 24 hours postdose. For oral administration, blood (approximately 1 mL) was collected from each animal predose and at 0.25, 0.5, 1, 2, 3, 4, 6, 8, 12, 18, and 24 hours postdose. Blood was collected into tubes containing K2-EDTA anticoagulant, which was maintained in chilled condition, and centrifuged to obtain plasma. Centrifugation began within 30 minutes of collection. Three, 100-μL aliquots of each plasma sample were promptly transferred following centrifugation into individual tubes containing 0.1% (w/v) dithioerythritol (DTE) for storage. Once the plasma aliquot was added, each tube was vortexed briefly to mix then immediately placed on dry ice.

[3] = as above; assay type: in vivo, male cynomolgus monkeys; settings: male, cynomolgus monkey, plasma; intravenous; title 5 mg/kg, text 2 mg/kg; n=6
[4] = Stability in human plasma; assay type: in vitro ADME; settings: over a 60 minute period, compound remaining
Method: (§1) The stability of various compounds as disclosed herein was tested in human and rat and in simulated gastric fluid. Each compound was tested over an hour period for concentration of the compound remaining at each time point. The results are shown in FIGS. 3 (human plasma stability), 4 (rat plasma stability), and 5 (simulated gastric fluid stability) for the compounds of Example 2, 3, 4, and 20.

[5] = Stability in simulated gastric fluid; assay type: in vitro ADME; settings: over a 60 minute period, compound remaining
Method: as §1

Stability in rat plasma = assay type: in vitro ADME; settings: over a 60 minute period, compound remaining
Method: as §1

[6] = tested on: human umbilical vein endothelial cells (HUVEC); assay: Nitric oxide production (nitrite+nitrate) in NAS-treated HUVEC; assay type: cell-based; settings: for NO production (nitrite+nitrate): 5-22 hours treatment; for effect (response) relative to that of free BH4: 5 to 22 hours exposure
Method: Cultured human umbilical vein endothelial cells (HUVEC) were pretreated with 3 mM N-acetylserotonin (NAS), an inhibitor of the enzyme sepiapterin reductase. Inhibition of this pathway typically results in loss of endogenous BH4, depressing the endogenous eNOS activity far below normal and provides an assay to test for restoration of eNOS activity.
Thus, subconfluent HUVECs were seeded in a 24-well plate and grown overnight in EGM2 medium (full growth medium). The next morning, fresh medium was added to the cells (300 μL/well), 3 mM N-acetylserotonin (NAS), an inhibitor of the enzyme sepiapterin reductase (a member of the synthesis pathway for endogenous BH4) was added to the cells to decrease the endogenous BH4 levels. After an incubation of 1.5 hours, 50, 100, or […] BH4 or compound of Example 5, Example 6, Example 7, or Example 9 were added to the cells. The cells were allowed to react with the BH4 or the compound of Example 5, Example 7, or Example 9 for 5-22 hours. The production of NO was then measured as changes in total (nitrite+nitrate) by the Griess reaction subsequent to nitrate reductase treatment. 90 μL of reaction mixture (25 mM Tris-HCL, pH7.4, 1 μM FAD, 1 μM FMN, 100 μM L-Arginin 2.5 mM CaCl2, 1 mM NADPH, 0.04 mg/ml Calmodulin) was mixed with 5 μl of eNOS (15 units/ml) and 5 μl of BH4 or BH4 analogs (1, 10, 100 μM), followed by incubation in a 37° C. water bath for 90 minutes. Then 100 μl of water and 20 μl of the nitrite fluorescent probe DAN (2,3-diaminonaphthalene, 316 μM) were added to each reaction and incubated at room temperature for 10 minutes. The dye DAN reacts with nitrite to yield the fluorescent product naphthotriazole. The reaction was then stopped by adding 10 μl of NaOH (2.8 M), and the fluorescence of the samples was read using excitation frequency 375 nm and emission frequency 415 nm. The percentage of nitrite+nitrate with BH4 or compound of Example 5, Example 7, or Example 9 is shown in FIG. 17 (after 5 hours); FIG. 18 (after 17 hours); and FIG. 19 (after 22 hours). The results for Example 6 are shown in FIG. 20 (after 5 hours) and FIG. 21 (after 20 hours).

[7] = male, cynomolgus monkey, plasma

What does the source list for `C[C@H](O)[C@H](O)[C@H]1CNc2nc(N)[nH]c(=O)c2N1` [BH4, Tetrahydrobiopterin, reference compound]?
lowering of systolic blood pressure (SBP) ([1]; SHR, 100 mg/kg/day oral gavage, after 3 weeks, vs vehicle): about 8.4 mmHg; blood pressure of SHR ([1]; previous studies, 10, 100, and 500 mg/kg/day, two weeks of oral administration): reduced the blood pressure; potentiation of eNOS activity (eNOS): did potentiate eNOS activity in a dose-dependent manner; bioavailability ([2]; male, cynomolgus monkey, plasma, po, 40 mg/kg, based on 6R-BH4 IV, read-out: Absolute Bioavailability, BH4): 9.8%; AUC(0-inf) [2, 7]: 13.4 µM·h; AUC(0-t) [2, 7]: 11.9 µM·h; Cmax [2, 7]: 2.33 µM; Tmax [2, 7]: 3.7 h; half-life [2, 7]: 5.9 h; Absolute Bioavailability, BH4 ([2]; based on 6R-BH4 IV, 40 mg/kg): 9.2 (4.2) %; AUC(0-inf) [3]: 6.96 µM·h; AUC(0-t) [3]: 6.76 µM·h; Cmax [3]: 7.05 µM; Tmax [3]: 6.6 min

Which “stability in human plasma” value [4] does the source give for `CCC(=O)O[C@@H]([C@H](C)OC(=O)CC)[C@H]1CNc2nc(N)[nH]c(=O)c2N1C(=O)CC` [Example 3, Propionic acid 1-(2-amino-4-oxo-5-propionyl-3,4,5,6,7,8-hexahydro-pteridin-6-yl)-2-Propionyloxy-propyl ester] here?
Its value is “high level of stability”.

What about the “stability in simulated gastric fluid” value [5] of the same compound?
The value was “high level of stability”.

And the “stability in rat plasma” value (Stability in rat plasma)?
Its value is “high level of stability”.

With `C[C@H](OC(=O)[C@@H]1CCCN1)[C@H](O)[C@H]1CNc2nc(N)[nH]c(=O)c2N1` [Example 9, Pyrrolidine-2-carboxylic acid 2-(2-amino-4-oxo-3,4,5,6,7,8-hexahydro-pteridin-6-yl)-2-hydroxy-1-methyl-ethyl ester dihydrochloride] as the compound, how does the “potentiation of eNOS activity” value (eNOS) read?
Its value is “slight effect on eNOS activity”.

And the “NO production (nitrite+nitrate)” value [6]?
The value was “increased NO production in a dose-dependent manner”.

And the “effect (response) relative to that of free BH4” value [6]?
The value was “similar, if slightly reduced, effect”.

Which results are given for `CCC(C)[C@H](N)C(=O)O[C@@H](C)[C@H](O)[C@H]1CNc2nc(N)[nH]c(=O)c2N1` (stereo in doubt) [Example 6, 2-Amino-3-methyl-pentanoic acid 2-(2-amino-4-oxo-3,4,5,6,7,8-hexahydro-pteridin-6-yl)-2-hydroxy-1-methyl-ethyl ester]?
NO production (nitrite+nitrate) [6]: increased NO production in a dose-dependent manner; effect (response) relative to that of free BH4 [6]: similar, if slightly reduced, effect

For `CCCC(=O)O[C@@H]([C@H](C)OC(=O)CCC)[C@H]1CNc2nc(N)[nH]c(=O)c2N1C(=O)CCC` [Example 4, Butyric acid 1-(2-amino-5-butyryl-4-oxo-3,4,5,6,7,8-hexahydro-pteridin-6-yl)-2-butyryloxy-propyl ester], which “stability in human plasma” value [4] is on record?
Its value is “high level of stability”.

And the “stability in simulated gastric fluid” value [5]?
Its value is “high level of stability”.

What about the “stability in rat plasma” value (Stability in rat plasma) of the same compound?
Its value is “high level of stability”.

For `CC(=O)O[C@@H]([C@H](C)OC(C)=O)[C@H]1CNc2nc(N)[nH]c(=O)c2N1C(C)=O` [Example 2, Acetic acid 2-acetoxy-1-(5-acetyl-2-amino-4-oxo-3,4,5,6,7,8-hexahydro-pteridin-6-yl)-propyl ester], which “stability in human plasma” value [4] is on record?
The value was “high level of stability”.

What about the “stability in simulated gastric fluid” value [5] of the same compound?
The value was “high level of stability”.

And the “stability in rat plasma” value (Stability in rat plasma)?
Its value is “high level of stability”.

For `C[C@@H](O)[C@@H](O)[C@H]1CNc2nc(N)[nH]c(=O)c2N1` [Example 6S-BH4, reference compound], which “potentiation of eNOS activity” value (eNOS) is on record?
Its value is “did not significantly potentiate eNOS activity”.

For `C[C@H](OC(=O)[C@@H](N)CCCCN)[C@H](O)[C@H]1CNc2nc(N)[nH]c(=O)c2N1` [Example 7, 2,6-Diamino-hexanoic acid 2-(2-amino-4-oxo-3,4,5,6,7,8-hexahydro-pteridin-6-yl)-2-hydroxy-1-methyl-ethyl ester tri-hydrochloride], which “potentiation of eNOS activity” value (eNOS) is on record?
The value was “slight effect on eNOS activity”.

What about the “NO production (nitrite+nitrate)” value [6] of the same compound?
Its value is “increased NO production in a dose-dependent manner”.

And the “effect (response) relative to that of free BH4” value [6]?
Its value is “similar, if slightly reduced, effect”.

From US7601717B2, “Pterin analogs” (BioMarin Pharmaceutical Inc., priority 2008, dated 2009)
